The source of these data is PubChem BioAssay AID743417 (Broad Institute, 2014).

Values joined by “and” are separate entries in the source; they are usually repeats but may differ in a detail not shown here. Identical values can stand only once. Records with an inconclusive call do not appear. Active and inactive are the calls of the source.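 How the source made its calls: active means compounds lowering the luciferase signal with a fitted half-maximal dose at most twice their top valid dose (cut at about 30 µM in these data); inconclusive means flat fits with moderate signal loss, or poor fits; inactive means the rest.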 A value given as a limit tells only on which side of the number the result lay.

The AC50 is the concentration giving half of the maximal activity seen.

This test concerns Clone20 osteoblast Shn3 3'UTR firefly luciferase, 24 h. The test is described as follows: Schnurri-3 3'UTR-luciferase signal suppressors – cell-based, Clone20 osteoblasts, luminescence, dry powder, set 2, dose response (AID 743417).
On to `CCN1CCN(Cc2ccc(NC(=O)c3cc(NC(=O)c4cc5cccc(OC)c5o4)cc(OC)c3)cc2C(F)(F)F)CC1`, for which the concentration at half-maximal activity (AC50) is 10.2 µM and 9.77 µM. Then `CC1=NOC(=O)/C1=C\c1ccc(-c2cc(Cl)ccc2Cl)o1`, with 5.69 µM; and `COc1cc(OC)c(OC)cc1CNc1cc(C)ccc1OC`, with 18.1 µM. `CCN(CC)c1ccc(/C=C2/SC(=O)N(C(C)C)C2=O)o1`: the AC50 is 3.46 µM. For `COc1ccc(CNc2ncnc3c2[nH]c2ccccc23)cc1`, the half-maximal activity concentration (AC50) is 4.19 µM.

On to `CN(C)CCCNc1c2ccccc2nc2ccccc12`, for which the half-maximal activity concentration (AC50) is 3.22 µM.

On to `CC(C)c1ccc(NC(=O)Nc2nc(C(N)c3ccccc3)cs2)cc1` (configuration not stated), for which the AC50 is 2.48 µM.

With `CN1CCN(c2ccc(-c3ccc4ccccc4n3)cc2)CC1`, the AC50 is 2.73 µM. Regarding `CCCc1nc2ccc(Br)cc2c(=O)n1-c1ccc([N+](=O)[O-])c(C(F)(F)F)c1`, the AC50 was 15.7 µM. As for `CCCCCCNC(=O)O[C@H]1Cn2c(=O)ccc(=O)n2[C@@H]2CN(S(=O)(=O)c3ccc(C)cc3)C[C@]12O`, the AC50 was 14.1 µM. `Cc1nnc(NC(=O)c2nc(S(=O)(=O)Cc3ccccc3)ncc2Cl)s1`: the AC50 is 1.34 µM. In the case of `Cc1cccc(N2CCN(C(=O)CSCc3c(C)noc3C)CC2)c1C` it was 2.41 µM; in that of `CC12CC(O)C3c4ccc(O)cc4CCC3C1CCC2=O` (configuration not stated), > 70 µM (inactive); in that of `COc1cc2ncnc(N[C@H](C)c3ccccc3)c2cc1OC`, 8.72 µM. In the case of `COc1ccc(OC)c(C(c2nnnn2Cc2ccccc2)N2CCN(C3CCCCC3)CC2)c1` (configuration not stated), the AC50 was > 70 µM (inactive). As for `COc1ccc(CNc2ncnc3sccc23)cc1`, the AC50 is 1.66 µM. Then `C=C1C(=O)C23CCC4C(C)(C(=O)OC)CCCC4(C)C2CCC1(O)C3` (configuration not stated), with 0.976 µM; and `CC(C)(C)c1ccc(C(O)CCCN2CCC(C(O)(c3ccccc3)c3ccccc3)CC2)cc1` (configuration not stated), with 16.7 µM. In the case of `C/C(Cl)=C\Cn1c(NCCc2ccccc2)nc2c1c(=O)n(C)c(=O)n2C`, the AC50 is 0.283 µM. For `O=C(Nc1nc(-c2ccccn2)cs1)c1cccc(-n2cnnn2)c1`, the concentration at half-maximal activity (AC50) is 2.58 µM. Then `CCOc1cc(/C=C2/C(=O)ON=C2C)ccc1OCc1ccccc1F`, with 6.95 µM; and `CCC(=O)N1c2ccc(S(=O)(=O)N3CCN(c4ccc([N+](=O)[O-])cc4)CC3)cc2CC1C` (configuration not stated), with 1.93 µM; and `CN(CC(=O)Nc1cc(S(=O)(=O)N2CCCC2)ccc1Cl)Cc1ccc2c(c1)OCO2`, with 13.1 µM.

With `CCOc1ccc(/C=C/[N+](=O)[O-])c2ccccc12`, the AC50 is 4.27 µM. In the case of `C#CCN(C[C@@H]1[C@@H](OC(=O)NC2CCCC2)[C@@H](OC(=O)NC2CCCC2)Cn2c(=O)ccc(=O)n21)S(=O)(=O)c1ccc(C)cc1`, the half-maximal activity concentration (AC50) is 12.9 µM.

As to `Cc1c(C(=O)Nc2ccc(F)c(F)c2)oc2ccc(S(=O)(=O)N3CCCCC3)cc12`, the half-maximal activity concentration (AC50) is 7.05 µM.

Turning to `COc1ccc(-c2noc(CCCCC(=O)N3CCN(c4cc(C)ccc4C)CC3)n2)cc1`, the AC50 is 1.75 µM. Consider `O=S(=O)(c1ccccc1C(F)(F)F)N1CCN(c2ncnc3sccc23)CC1`, for which the AC50 is 3.44 µM.

For the molecule `CC(C)(C)NCC(=Cc1ccccc1)C(=O)c1ccccc1`, the AC50 was 4.51 µM. In the case of `Fc1ccc(-n2nnnc2-c2cnc(-c3cccs3)nc2C(F)(F)F)cc1` it was 4.44 µM. Then `NC(=O)c1ccc(N2CCN(S(=O)(=O)c3cccs3)CC2)c([N+](=O)[O-])c1`, with 0.305 µM; and `CC(=O)OCCCNc1cc(Sc2ccc(Cl)cc2)c2nonc2c1[N+](=O)[O-]`, with 1.14 µM. Take `Cc1cc2sc3ccc(C#CC4(O)CCCCC4)cc3c(=O)c2cc1C`: the AC50 was < 0.26 µM. Regarding `NS(=O)(=O)c1ccc(CCNCc2cc(Br)ccc2OCc2ccccc2)cc1`, the half-maximal activity concentration (AC50) was 2.92 µM.

With `CCOC(=O)N1CCN(CC(c2ccccc2)c2ccccc2)CC1`, the AC50 was 14.1 µM. `CCc1nnc(NC(=O)c2nc(S(=O)(=O)Cc3ccc(C)cc3)ncc2Cl)s1`: the AC50 was 3.01 µM. Then `NS(=O)(=O)c1ccc(CCNCc2cc(Br)ccc2OCc2ccccc2F)cc1`, with 4.65 µM; and `Cc1ccc(CS(=O)(=O)c2ncc(Cl)c(C(=O)Nc3ccc(OC(F)F)cc3)n2)cc1`, with 2.34 µM; and `COc1ccc(CNCC(O)COc2cccc3c2OC(C)(C)C3)cc1` (configuration not stated), with 1.68 µM. With `COCOCCn1cc(CN2CCS(=O)(=O)N(Cc3ccc(-c4ccc(Cl)c(Cl)c4)cc3)C(C(C)C)C2=O)nn1` (configuration not stated), the AC50 was 1.35 µM. Turning to `COc1ccc(S(=O)(=O)N2CCN(C(=O)c3cc(-c4ccc(Br)cc4)n[nH]3)CC2)cc1OC`, the AC50 is 4.55 µM. Then `Cc1c(C)c2ccc(OCC(=O)Nc3ccccn3)c(C)c2oc1=O`, with 0.416 µM. Turning to `CCc1cc2c(N3CCN(c4ccccc4)CC3)ncnc2s1`, the concentration at half-maximal activity (AC50) was 6.18 µM. Consider `Cc1cc(NC(c2ccc(Cl)cc2)c2ccc3cccnc3c2O)no1` (configuration not stated), for which the AC50 is 1.05 µM. As to `Oc1ccc(-c2csc(Nc3cccc4ccccc34)n2)cc1O`, the half-maximal activity concentration (AC50) is 1.58 µM. Then `CCOc1ccc(Cn2nnc(C(=O)Nc3cc(OC)cc(OC)c3)c2N)cc1`, with 5.3 µM. As to `CCOC(=O)c1ccc(NC(=O)Cn2ncc(Cl)c(Cl)c2=O)cc1`, the AC50 is 2.32 µM.

As for `CCC(CC)CN1C(N(C)C)=NC[C@@H]1CC(C)C`, the AC50 was 0.717 µM.

As to `CCCCCCCCNC(C)C(O)c1ccc(SC(C)C)cc1` (configuration not stated), the AC50 is 3.94 µM.

For `CN(CC(=O)Nc1cccc(S(=O)(=O)N2CCOCC2)c1)CC(=O)Nc1ccc(Cl)c(C(F)(F)F)c1`, the AC50 is 2.4 µM. Turning to `C[C@H](NC(=O)c1nc[nH]c1C(=O)NCc1ccc(CNC(=O)OC(C)(C)C)cc1)c1ccccc1`, the AC50 is 11.7 µM. Take `Cc1ccc(NC(=O)CSc2nn(-c3ccccc3)c(=S)s2)cc1S(=O)(=O)N(C)C`: the AC50 is 5.82 µM. Take `Cc1csc(=O)n1CC(=O)OCC(=O)c1c(N)n(C)c(=O)n(C)c1=O`: the AC50 is 27.1 µM. For the molecule `CCCCN(c1nc2ccccc2nc1Cl)S(=O)(=O)c1ccc(C)cc1`, the AC50 was 7.22 µM.

As to `COc1cc2c(OC(C)=O)c3c(c(-c4ccc5c(c4)OCO5)c2cc1OC)C(=O)OC3`, the AC50 is 1.8 µM.

In the case of `CC(=O)NC(c1cc(Cl)c2cccnc2c1O)C(C)C` (configuration not stated), the AC50 is 2.96 µM. In the case of `O=[N+]([O-])c1c(NCCCO)cc(Sc2ccc(Cl)cc2)c2nonc12` it was 5.63 µM. For `Oc1c(CN2CCN(c3ccccc3)CC2)cc(Br)c2cccnc12`, the AC50 was 1.92 µM. For the molecule `COc1cc(Nc2nc(-c3ccccc3)c3cc(C)ccc3n2)cc(OC)c1OC`, the AC50 is 6.55 µM. As to `CC(=O)NC(c1ccc(Cl)cc1)c1ccc2cccnc2c1O` (configuration not stated), the AC50 is 0.299 µM.

In the case of `COc1cccc(CNc2nc(NCC3CC3)nc3ccsc23)c1OC`, the AC50 was 4.48 µM. Then `CCCCN1CC(COCc2ccccc2)Oc2cccc(Oc3ccc(C)cc3)c2S1(=O)=O` (configuration not stated), with 10.7 µM. For the molecule `CC(C)c1ccc(/C=C(\c2nc3ccccc3[nH]2)S(=O)(=O)c2ccccc2)cc1`, the AC50 is 4.01 µM. Regarding `C=CCN(c1ccccc1)S(=O)(=O)c1cccc(C(=O)Nc2nc3ccccc3[nH]2)c1`, the concentration at half-maximal activity (AC50) was 10.1 µM. For the molecule `Cc1cc(C(=O)NNS(=O)(=O)c2cc(C(=O)O)ccc2Cl)c(C)n1-c1ccccc1`, the AC50 is 25.7 µM. `COc1ccc(NC(=O)c2nc(S(=O)(=O)Cc3cccc(C)c3)ncc2Cl)c(OC)c1`: the AC50 is 0.299 µM. `CC(=O)N1CCCc2cc(S(=O)(=O)N3CCCC(C(=O)N4CCN(c5cccc(Cl)c5)CC4)C3)ccc21` (configuration not stated): the AC50 was 1.9 µM.
